From patent publication US20140120190A1, “METHODS OF PREPARING PRICKLY-ASH PEEL EXTRACTS AND COSMETIC COMPOSITIONS INCORPORATING PRICKLY-ASH PEEL EXTRACTS” (priority 2012, published 2014)

How the values were obtained:
NF-κB gene = assay: Blocking of NF-κB gene expression
skin = assay: Effects on skin at the tissue level (collagen, elastin, hair follicles, senile plaques)
Antioxidant effect = assay: Antioxidant effect
Description: At the same time, the molecular weight of gx-50 is so small that gx-50 is more easily absorbed via the skin.

COc1ccc(CCNC(=O)/C=C/c2ccccc2)cc1OC [gx-50]
expression of the NF-κB gene (NF-κB gene): effectively blocks the expression of the NF-κB gene
loss of collagen and elastin in skin (skin): helps prevent the loss of collagen and elastin in skin
antioxidant effect (Antioxidant effect): possessing an antioxidant effect
